By MIC is commonly meant the least concentration at which growth counts as inhibited. For orientation: ED50 means the dose at which the effect has come halfway, by size or by number of responders. High values mean a need for a large dose, low ones an effect at a small dose.

≈ marks a conversion by molar mass, not a printed value.

The test system of experiment [1] is Proteus mirabilis Hamburgensis. As to the kind of experiment: Serial dilution test in the microtiter system, MIC against Proteus mirabilis Hamburgensis. It is filed as cell-based. The settings on record: minimum inhibitory concentration, 37° C., 18 to 20 hours, read-out: MIC, Prot. Mir. Hbg. On the procedure: (§1) The tests were performed using the serial dilution test in the microtiter system. The effect of the test compounds on bacteriostasis was examined at the following concentrations: 80, 40, 20, 10, 5, 2.5, 1.25, 0.6, 0.3, 0.08 and 0.02 μgm/ml. The nutrient medium consisted of 10 gm of peptone, 8 gm of meat extract oxoid, 3 gm of sodium chloride, and 2 gm of sec. sodium phosphate diluted with distilled water to […] (pH 7.2-7.4). Only in the test against streptococci 1% of glucose was added. The age of the primary cultures was approximately 20 hours. The standardization of the bacteria suspension was effected using a photometer according to the method of Eppendorf (test tube .phi. 14 mm, filter 546 nm), using for comparison a barium sulfate suspension formed by the addition of 3.0 ml of 1% barium chloride solution to 97 ml of 1% sulfuric acid. After the standardization,Streptococcus aronson was further diluted to a concentration of 1:15, and the other bacteria to a concentration of 1:1500, using a sodium chloride solution.
(§2) 16 mgm of the particular test compound were put into a 10 ml measuring flask, and the flask was subsequently filled to the mark with solvent. The further dilution series was standardized with distilled water or the appropriate solvent.
(§3) The cavities of the microtiter plates were filled with 0.2 ml of nutrient medium. 0.01 ml of the appropriate test compound solution was then added, followed by inoculation with 0.01 ml of the standardized bacteria suspension. The bacteria were incubated at 37° C. for 18 to 20 hours. Control tests using only the solvent were carried out simultaneously.
(§4) The measurement was carried out macroscopically to determine the minimum inhibitory concentration (the lowest still bacteriostatically effective concentration).
(§5) The following test organisms were used:
(§6) Staphylococcus aureus SG 511, St. aureus E 88 (β-lactamase carrier), Escherichia coli ATCC 11 775, Pseudomonas aeruginosa Hamburgensis and Pseudomonas aeruginosa Walter, Serratia macrescens ATCC 13 880, Klebsiella pneumoniae ATCC 10 031 and 272, Proteus mirabilis Hamburgensis, Proteus rettgeri Eb. cloaceae ATCC 13047, and E. coli R+TEM (β-lactamase carrier).
(§7) The following tables show the determined minimum inhibitory concentrations (MIC) for a few representative compounds (E=Na) of the present invention, and two known cephalosporins for comparison: […]

For experiment [2], the system named is Serratia macrescens ATCC 13 880. The experiment in a line: Serial dilution test in the microtiter system, MIC against Serratia marcescens ATCC 13880. It counts as cell-based. As to conditions: read-out: MIC, Serr. marcesc. ATCC 13880. On the procedure: as §1, §2, §3, §4, §5, §6, §7
The subject of experiment [3] is E. coli ATCC 11775. As to the kind of experiment: In vivo test in mice against experimental E. coli infection. The settings on record: Escherichia coli, ATCC11775, sc, 168 h; subcutaneous; per dose; dose at which 50% of the animals survived; observation 7 days. On the set-up: species or system Female NMRI mice. As to the method: (§8) A series of the compounds according to the invention was tested in vivo in mice against experimental infections. As pathogenic bacteria were used E. coli ATCC 11775 and Pseudomonas aeruginosa Walter. An intraperitoneal infection was induced in each mouse with 0.2 ml of a 5% mucin suspension of the bacteria corresponding of approximately 1.4×10^6 E. coli cells and 1.3×10^6 Pseudomonas cells per mouse. Female NMRI mice were used, divided into groups of 10 animals. Two groups were untreated and the remaining groups were treated with different doses of the cephalosporins to be tested to determine the ED50 (dose at which 50% of the animals survived). The groups infected with E. coli were on the first day treated with the test compound three times ([…] post infectionem) and on the second day twice. The groups with the Pseudomonas infection were on the first day treated with the test compound six times (1, 3, 5, 7, 9 and 11 hours post infectionem), and on the following two days twice.
(§9) The observation time was in both cases 7 days.

Experiment [4] deals with Staphylococcus aureus SG 511. As to the kind of experiment: Serial dilution test in the microtiter system, MIC against S. aureus SG 511. It counts as cell-based. As to conditions: SG511, minimum inhibitory concentration, 37° C., 18 to 20 hours. As to the method: as §1, §2, §3, §4, §5, §6, §7
Experiment [5] has as its system E. coli R+TEM. The experiment in a line: Serial dilution test in the microtiter system, MIC against E. coli R+TEM (β-lactamase carrier). It counts as cell-based. The settings on record: Escherichia coli, read-out: MIC, E. coli R + TEM. As to the method: as §1, §2, §3, §4, §5, §6, §7
Experiment [6] deals with Eb. cloaceae ATCC 13047. The experiment in a line: Serial dilution test in the microtiter system, MIC against Eb. cloaceae ATCC 13047. It is filed as cell-based. As to conditions: minimum inhibitory concentration; 37° C., 18 to 20 hours. On the procedure:
as §1, §2, §3, §4, §5, §6, §7

Experiment [7] deals with Escherichia coli ATCC 11 775. The experiment in a line: Serial dilution test in the microtiter system, MIC against E. coli ATCC 11775. As to conditions: minimum inhibitory concentration, 37° C., 18 to 20 hours. It is filed as cell-based. On the procedure:
as §1, §2, §3, §4, §5, §6, §7

In experiment [8] the test system is St. aureus E 88. The experiment in a line: Serial dilution test in the microtiter system, MIC against S. aureus E 88 (β-lactamase carrier). As to conditions: Staphylococcus aureus, E88, minimum inhibitory concentration, 37° C., 18 to 20 hours. It counts as cell-based. As to the method: as §1, §2, §3, §4, §5, §6, §7
The test system of experiment [9] is Klebsiella pneumoniae 272. As to the kind of experiment: Serial dilution test in the microtiter system, MIC against Klebsiella pneumoniae 272. It counts as cell-based. As to conditions: minimum inhibitory concentration, 37° C., 18 to 20 hours, read-out: MIC, Klebs. pneum. 272. On the procedure:
as §1, §2, §3, §4, §5, §6, §7

Experiment [10] has as its system Pseudomonas aeruginosa Walter. The experiment in a line: In vivo test in mice against experimental Pseudomonas infection. On the set-up: species or system Female NMRI mice. The settings on record: Pseudomonas aeruginosa, sc, 168 h; subcutaneous; per dose; dose at which 50% of the animals survived; observation 7 days. As to the method:
as §8, §9

In experiment [11] the test system is Pseudomonas aeruginosa Walter. As to the kind of experiment: Serial dilution test in the microtiter system, MIC against Pseudomonas aeruginosa Walter. It counts as cell-based. The settings on record: minimum inhibitory concentration, 37° C., 18 to 20 hours, read-out: MIC, Pseud. aerug. Walter. As to the method: as §1, §2, §3, §4, §5, §6, §7
Experiment [12] has as its system Pseudomonas aeruginosa Hamburgensis. The experiment in a line: Serial dilution test in the microtiter system, MIC against Pseudomonas aeruginosa Hamburgensis. It is filed as cell-based. As to conditions: minimum inhibitory concentration, 37° C., 18 to 20 hours, read-out: MIC, Pseud. aerug. Hbg. On the procedure:
as §1, §2, §3, §4, §5, §6, §7

Experiment [13] deals with Klebsiella pneumoniae ATCC 10 031. The experiment in a line: Serial dilution test in the microtiter system, MIC against Klebsiella pneumoniae ATCC 10031. As to conditions: minimum inhibitory concentration, 37° C., 18 to 20 hours, read-out: MIC, Klebs. pneum. ATCC 10031. It is filed as cell-based. On the procedure:
as §1, §2, §3, §4, §5, §6, §7

The subject of experiment [14] is Proteus rettgeri. As to the kind of experiment: Serial dilution test in the microtiter system, MIC against Proteus rettgeri. It is filed as cell-based. As to conditions: Providencia rettgeri; minimum inhibitory concentration; 37° C., 18 to 20 hours; read-out: MIC, Prot. rettg. On the procedure:
as §1, §2, §3, §4, §5, §6, §7

Consider `Cn1nnnc1SCC1=C(C(=O)O)N2C(=O)[C@@H](NC(=O)[C@H](NC(=O)Nc3cnc(NCCCO)nc3O)c3ccc(O)cc3)[C@H]2SC1` [E], for which the minimum inhibitory concentration (MIC) in experiment [1] was 0.13 µg/mL (≈ 0.189 µM); in experiment [2], 1 µg/mL (≈ 1.45 µM); in [4], 1 µg/mL (≈ 1.45 µM); in experiment [5], 16 µg/mL; in experiment [6], 0.5 µg/mL (≈ 0.727 µM); in experiment [7] it was 0.25 µg/mL (≈ 0.364 µM). Besides, the MIC in experiment [8] was 8 µg/mL (≈ 11.6 µM); in experiment [9] it was 1 µg/mL (≈ 1.45 µM); in [11] it was 8 µg/mL (≈ 11.6 µM); in [12] it was 4 µg/mL (≈ 5.82 µM); in [13] it was 0.5 µg/mL (≈ 0.727 µM); in experiment [14], 1 µg/mL (≈ 1.45 µM). Further, the ED50 in experiment [3] is 0.8 mg/kg; in experiment [10] it was 11.2 mg/kg.
In the case of `CNS(=O)(=O)c1ccc(Nc2ncc(NC(=O)N[C@@H](C(=O)N[C@@H]3C(=O)N4C(C(=O)O)=C(CSc5nnnn5C)CS[C@H]34)c3ccc(O)cc3)c(O)n2)cc1` [K], the MIC in experiment [1] is 0.06 µg/mL (≈ 0.0751 µM); in [2] it was 0.13 µg/mL (≈ 0.163 µM); in experiment [4], 0.5 µg/mL (≈ 0.626 µM); in experiment [5], 2 µg/mL; in experiment [6], 0.5 µg/mL (≈ 0.626 µM); in [7], < 0.03 µg/mL. For the same compound, the MIC came out at 4 µg/mL (≈ 5.01 µM) in experiment [8]; 0.13 µg/mL (≈ 0.163 µM) in experiment [9]; 2 µg/mL (≈ 2.5 µM) in experiment [11]; 4 µg/mL (≈ 5.01 µM) in experiment [12]; 0.06 µg/mL (≈ 0.0751 µM) in experiment [13]; 0.25 µg/mL (≈ 0.313 µM) in experiment [14]. The ED50 in experiment [3] was 0.3 mg/kg; in experiment [10], 3.6 mg/kg.
On to `Cn1nnnc1SCC1=C(C(=O)O)N2C(=O)[C@@H](NC(=O)[C@H](NC(=O)Nc3cnc(Nc4ccc(S(N)(=O)=O)cc4)nc3O)c3ccc(O)cc3)[C@H]2SC1` [L], for which the MIC in [1] was < 0.06 µg/mL; in experiment [2], 0.06 µg/mL (≈ 0.0765 µM); in experiment [4], 0.5 µg/mL (≈ 0.637 µM); in experiment [5], 2 µg/mL; in experiment [6], 0.5 µg/mL (≈ 0.637 µM); in [7], < 0.03 µg/mL. The MIC in experiment [8] was 4 µg/mL (≈ 5.1 µM); in experiment [9], 0.06 µg/mL (≈ 0.0765 µM); in experiment [11], 2 µg/mL (≈ 2.55 µM); in experiment [12], 2 µg/mL (≈ 2.55 µM); in experiment [13], 0.06 µg/mL (≈ 0.0765 µM); in experiment [14] it was 0.13 µg/mL (≈ 0.166 µM). Moreover, the ED50 in experiment [3] amounted to 0.15 mg/kg; in experiment [10], 2.1 mg/kg.
For `Cn1nnnc1SCC1=C(C(=O)O)N2C(=O)[C@@H](NC(=O)C(NC(=O)Nc3cnc(Nc4ccc(S(N)(=O)=O)cc4)nc3O)c3cccs3)[C@H]2SC1` (stereo partly drawn) [M], the MIC in experiment [1] amounted to 0.13 µg/mL (≈ 0.168 µM); in experiment [2], 0.25 µg/mL (≈ 0.323 µM); in [4] it was 0.5 µg/mL (≈ 0.645 µM); in experiment [5], 4 µg/mL; in [6], 0.5 µg/mL (≈ 0.645 µM); in experiment [7] it was 0.13 µg/mL (≈ 0.168 µM). The MIC in experiment [8] worked out at 4 µg/mL (≈ 5.16 µM); in [9], 0.25 µg/mL (≈ 0.323 µM); in [11], 4 µg/mL (≈ 5.16 µM); in experiment [12], 4 µg/mL (≈ 5.16 µM); in experiment [13], 0.25 µg/mL (≈ 0.323 µM); in [14] it was 0.5 µg/mL (≈ 0.645 µM).
For the compound `CNS(=O)(=O)c1ccc(Nc2ncc(NC(=O)N[C@@H](C(=O)N[C@@H]3C(=O)N4C(C(=O)O)=C(CSc5nnc(C)s5)CS[C@H]34)c3ccc(O)cc3)c(O)n2)cc1` [N], the MIC in experiment [1] came out at 0.5 µg/mL (≈ 0.614 µM); in [2], 0.25 µg/mL (≈ 0.307 µM); in experiment [4], 1 µg/mL (≈ 1.23 µM); in experiment [5], 4 µg/mL; in experiment [6] it was 1 µg/mL (≈ 1.23 µM); in [7], 0.25 µg/mL (≈ 0.307 µM). Also, the MIC was determined as 8 µg/mL (≈ 9.82 µM) in [8]; 0.5 µg/mL (≈ 0.614 µM) in experiment [9]; 4 µg/mL (≈ 4.91 µM) in experiment [11]; 4 µg/mL (≈ 4.91 µM) in experiment [12]; 0.25 µg/mL (≈ 0.307 µM) in experiment [13]; 0.5 µg/mL (≈ 0.614 µM) in experiment [14].

Values taken from patent US4316898A, “Cephalosporins” (Boehringer Ingelheim KG, priority 1979, dated 1982).
